Assays:
[1] = Growth performance of three day old chicks fed diet with AS101 (body weight, feed intake, feed efficacy, liver weight, survival, histology); conditions: for increase in BW over Group 1: versus standard diet without selenium
Procedure: Each chick included in the study weighed exactly 80 g. via accurate electronic scale and each chick was marked. There were five different treatment groups, each group comprising ten chicks in four repetitions. The five groups of animals were tested as follows: Group 1 received a standard feeding diet without selenium; Group 2 received the standard feeding diet supplemented with 500 mg/metric ton of selenium; Group 3 received the same diet as Group 2 with the addition of AS101 at a concentration of 500 mg/metric ton; Group 4 received the same diet as Group 2 with the addition of AS101 at a concentration of 2,500 mg/metric ton; Group 5 received the same diet as Group 2 with the addition of AS101 at a concentration of 12,500 mg/ton. All the experiments were randomized and open. The results of each group represent the mean of 40 chicks. For growth period days 3-24, the performance of groups of three day old birds, fed AS101 concentrations of 500 mg/metric ton, 2,500 mg/metric ton or 12,500 mg/metric ton were compared to groups of control birds fed either a standard feeding diet without selenium or a standard feeding diet with an addition of […] selenium. Body weight (BW) was measured after 24 days. At the end of 24 days, the animals were examined for gross signs of toxicity. A gross visual examination was carried out. The liver of each chick was extracted and weighed.

[2] = Phase I and II, cancer patients; cited from earlier work
[3] = intraruminal pellets selenium, dairy heifers; cited from earlier work
[4] = Treatment 3: AS101 500 mg/metric ton
[5] = Treatment 4: AS101 2,500 mg/metric ton
[6] = Treatment 4: AS101 2,500 mg/metric ton, control = Treatment 2
[7] = Treatment 5: AS101 12,500 mg/ton
[8] = Treatment 5: AS101 12,500 mg/ton, control = Treatment 2
[9] = Treatment 2: selenium supplemented diet, no AS101

Cl[TeH]1(Cl)(Cl)OCCO1 [AS101, ammonium trichloro(dioxyethylene-O,O′)tellurate]
change in BW (significance) ([1]; 12.5 g/ton AS101): significant increase in BW | BW increase ([1]; AS101 500 mg/ton added to mixture that includes selenium): 1.7% | BW increase ([1]; AS101 2,500 mg/ton added to mixture that includes selenium): 2.3% | BW increase ([1]; AS101 12,500 mg/ton added to mixture that includes selenium): 5% | increase in BW over Group 1 ([1]; Group 5, highest level of tellurium): 5.4% | FEED EFFICACY [1, 4]: 0.731 g/g | FEED INTAKE [1, 4]: 1382 g | FE, % OF CONTROL ([1]; Treatment 3: AS101 500 mg/metric ton, control = Treatment 2): 103.5% | BW, % OF CONTROL ([1]; Treatment 3: AS101 500 mg/metric ton, control = Treatment 2 (selenium diet)): 101.7% | BW-24D ([1]; Treatment 3: standard diet + selenium 500 mg/metric ton + AS101 500 mg/metric ton, mean of 40 chicks): 1090 g | FEED EFFICACY [1, 5]: 0.74 g/g | FEED INTAKE [1, 5]: 1375 g | BW, % OF CONTROL [1, 6]: 102.3% | FE, % OF CONTROL [1, 6]: 104.8% | BW-24D ([1]; Treatment 4: standard diet + selenium + AS101 2,500 mg/metric ton, mean of 40 chicks): 1097 g | FEED EFFICACY [1, 7]: 0.738 g/g | FEED INTAKE [1, 7]: 1417 g | BW, % OF CONTROL [1, 8]: 105% | FE, % OF CONTROL [1, 8]: 104.5% | BW-24D ([1]; Treatment 5: standard diet + selenium + AS101 12,500 mg/ton, mean of 40 chicks): 1126 g | survival rate ([1]; all groups, no mortalities): 100% | increase of growth rate of young chicks ([1]; diet with at least 0.5 gm selenium per metric ton + 12.5 gm tellurium compound per metric ton, by day 21): up to 5% | food intake altered by feeding with AS101 ([1]; in vivo): not altered | histological studies ([1]; in vivo): No pathological changes were observed | toxicity in clinical trials [2]: non-toxic

[Se] [selenium, reference compound]
increase in BW over Group 1 ([1]; Group 2, addition of 300 mg/ton of selenium): 0.4% | FEED EFFICACY [1, 9]: 0.706 g/g | FEED INTAKE [1, 9]: 1405 g | LIVER, % OF BW [1, 9]: 2.32% | BW-24D ([1]; Treatment 2: standard diet supplemented with 500 mg/metric ton of selenium, no AS101): 1072 g | weight gains over control [3]: 0.11 to 0.12 kg/day

— US20030113409A1, “Tellurium containing nutrient formulation and process for enhancing the cumulative weight gain or feed efficacy in poultry” (priority 2001, published 2003)
